Test results from patent US6528276B1, “Fusion proteins, DNA molecules, vectors, and host cells useful for measuring protease activity” (priority 1998, dated 2003).

What was measured:
[1] = tested on: fusion protein EdR5A/5B (i.e., the protein encoded by VgRXR-5A/5B); assay: Ligand-induced activation of the VgRXR-5A/5B fusion protein, luciferase reporter in COS cells without protease; type: cell-based
Method: (§1) COS African green monkey kidney cells were plated at approximately 150,000 cells/well in a 6-well plate. The next day, approximately 3.6 μg plasmid DNA was dissolved in 100 μl of Dulbecco's modified Eagle's media-Gibco BRL (DMEM), combined with 29 μl of Superfect reagent (Qiagen), and then mixed by pipetting. The mixture was incubated at room temperature for ten minutes.
(§2) The amounts of DNA typically used in each experiment was as follows: 0.6 μg of pIND-Luc, 0.6 μg of pVgRXR-5A/5B or pVgRXR-5A**5B, and 0-2.4 μg of pSRα-NS3-4A or pSRα-NS3-4A(S1165A) or pSRα.
(§3) Next 600 μl of DMEM with v/v 10% fetal bovine serum (10% FBS-DMEM) was added to the DNA mixture and mixed by pipetting. The cells in the 6-well plate were washed with 2.5 ml phosphate-buffered saline (PBS). The PBS was removed from the cells and replaced by the DNA mixture. The cells were incubated in the DNA mixture for three hours at 37° C. in a 5% CO2 incubator.
After incubation, the cells were washed with PBS. The PBS was removed and 10% FBS-DMEM was added to the cells. The cells were incubated in 10% FBS-DMEM overnight at 37° C. in a 5% CO2 incubator.
On the next day, an exogenous ligand was added to the cells to induce transcription of the reporter gene. Specifically, the 10% FBS-DMEM was aspirated off the cells and replaced with a 10% FBS-DMEM solution containing a concentration of 1-10 μM muristerone A or 1-10 μM ponasterone A (Invitrogen, United Kingdom). In some cases, a protease inhibitor dissolved in dimethylsulfoxide(DMSO) was also added to the cells for a final concentration of 1-40 μM. The cells were incubated with muristerone A or ponasterone A for 24 hours at 37° C. in a 5% CO2 incubator.
The following day, the cells were washed with PBS. The activity of the luciferase protein was measured using a luciferase assay kit (Promega). Specifically, the cells were lysed in 250 μl of Cell Culture Lysis Reagent. The cells were scraped from the plate and transferred to a microfuge tube. The extract was spun at 12,000×g for 5 seconds. Twenty microliters of each sample was added to 100 μl of Luciferase Assay Reagent. The light produced by the reaction of the luciferase with the Reagent was measured in a luminometer and was reported as relative light units (RLU).
The plasmid pIND-Luc (0.6 μg) was cotransfected with pVgRXR-5A/5B (0.6 μg) in the absence or presence of 1.8 μg of pSRαNS3-4A. On the following day, the cells were incubated with varying amounts of ponasterone A, a ligand which induces the neterodimerization of ecdysone receptor with the mammalian […], RXR. The cells were lysed and assayed for luciferase activity as described previously. The results are depicted in FIG. 7. […]

[2] = tested on: pIND-Luc luciferase reporter; assay: Muristerone A-induced transactivation of pIND-Luc by expressed fusion proteins in COS cells; type: cell-based, African green monkey; conditions: 1 μM muristerone A
Method: as §1, §2, §3
After incubation, the cells were washed with PBS. The PBS was removed and 10% FBS-DMEM was added to the cells. […]
The following day, the cells were washed with PBS. The activity of the luciferase protein was measured using a luciferase assay kit (Promega). […] The light produced by the reaction of the luciferase with the Reagent was measured in a luminometer and was reported as relative light units (RLU). […]

C[S+](C)[O-] [DMSO, dimethylsulfoxide]
effect on ponasterone A-induced luciferase activity ([1]; DMSO concentrations up to 1% (v/v), 5 μM ponasterone A, with or without pSRαNS3-4A): little or no effect

CC(C)CC[C@@H](O)[C@](C)(O)[C@H]1CC[C@@]2(O)C3=CC(=O)[C@@H]4C[C@@H](O)[C@@H](O)C[C@]4(C)[C@H]3CC[C@]12C [ponasterone A]
activation of the fusion protein ([1]; absence of the protease NS3-4A): effective at activating the fusion protein
induction of transcription compared with muristerone A ([1]; in these assays): equally effective
ponasterone A concentration giving greatest activation of the fusion protein ([1]; tested at 1, 3.3, 10, 33, 100 μM, COS cells): 3.3 to 10 µM

B1: pVgRXR-5A(Stop)5B: control fusion protein with tandem stop codons in the 5A/5B cleavage site (SEQ ID NO:22) (protein)
chain: MAPPTDVSLGDELHLDGEDVAMAHADALDDFDLDMLGDGDSPGPGFTPHDSAPYGALDMADFEFEQMFTDALGIDEYGGKLLGTGADTEDVVCC
muristerone A-induced luciferase activity of the expressed fusion protein ([2]; 24 hours, no protease, FIG. 4): negligible activity

B2: VgRXR: Invitrogen vector product: modified ecdysone receptor/VP16 fusion (VgEcR) plus RXR (protein)
chain: TPTTPLHLQQNLGGAGGGGIGGMGILHHANGTPNGLIGVVGGGGGVGLGVGGGGVGGLGMQHTPRSDSVNSISSGRDDLSPSSSLNGYSANESCDAKKSKKGPAPRVQEELCLVCGDRASGYHYNALTCEGCKGFFRRSVTKSAVYCCKFGRACEMDMYMRRKCQECRLKKCLAVGMRPECVVPENQCAMKRREKKAQKEKDKMTTSPSSQHGGNGSLASGGGQDFVKKEILDLMTCEPPQHATIPLLPDEILAKCQARNIPSLTYNQLAVIYKLIWYQDGYEQPSEEDLRRIMSQPDENESQTDVSFRHITEITILTVQLIVEFAKGLPAFTKIPQEDQITLLKACSSEVMMLRMARRYDHSSDSIFFANNRSYTRDSYKMAGMADNIEDLLHFCRQMFSMKVDNVEYALLTAIVIFSDRPGLEKAQLVEAIQSYYIDTLRIYILNRHCGDSMSLVFYAKLLSILTELRTLGNQNAEMCFSLKLKNRKLPKFLEEIWDVHAIPPSVQSHLQITQEENERLERAERMRASVGGAITAGIDCDSASTSAAAAAAQHQPQPQPQPQPSSLTQNDSQHQTQPQLQPQLPPQLQGQLQPQLQPQLQTQLQPQIQPQPQLLPVSAPVPASVTAPGSLSAVSTSSEYMGGSAAIGPITPATTSSITAAVTASSTTSAVPMGNGVGVGVGVGGNVSMYANAQTAMALMGVALHSHQEQLIGGVAVKSEHSTTA
modifications: left off: large carriers
notes: Invitrogen vector product: modified ecdysone receptor/VP16 fusion (VgEcR) plus RXR
change in luciferase activity when coexpressed with the protease NS3-4A ([2]; increasing amounts of pSRαNS3-4A): little or no change
